In ChEMBL document CHEMBL4834403, “Design and Synthesis of Novel Epigenetic Inhibitors Targeting Histone Deacetylases, DNA Methyltransferase 1, and Lysine Methyltransferase G9a with In Vivo Efficacy in Multiple Myeloma” (J Med Chem, 2021):

Columns and labels:
[1] = molecular target: T1, Protein deacetylase HDAC6 (Homo sapiens, UniProt Q9UBN7); assay: Inhibition of full length human N-terminal GST-tagged HDAC6 using fluorogenic acetylated peptide as substrate incubated for 30 mins by fluorescence plate reader assay
T1 sequence (Q9UBN7 whole entry): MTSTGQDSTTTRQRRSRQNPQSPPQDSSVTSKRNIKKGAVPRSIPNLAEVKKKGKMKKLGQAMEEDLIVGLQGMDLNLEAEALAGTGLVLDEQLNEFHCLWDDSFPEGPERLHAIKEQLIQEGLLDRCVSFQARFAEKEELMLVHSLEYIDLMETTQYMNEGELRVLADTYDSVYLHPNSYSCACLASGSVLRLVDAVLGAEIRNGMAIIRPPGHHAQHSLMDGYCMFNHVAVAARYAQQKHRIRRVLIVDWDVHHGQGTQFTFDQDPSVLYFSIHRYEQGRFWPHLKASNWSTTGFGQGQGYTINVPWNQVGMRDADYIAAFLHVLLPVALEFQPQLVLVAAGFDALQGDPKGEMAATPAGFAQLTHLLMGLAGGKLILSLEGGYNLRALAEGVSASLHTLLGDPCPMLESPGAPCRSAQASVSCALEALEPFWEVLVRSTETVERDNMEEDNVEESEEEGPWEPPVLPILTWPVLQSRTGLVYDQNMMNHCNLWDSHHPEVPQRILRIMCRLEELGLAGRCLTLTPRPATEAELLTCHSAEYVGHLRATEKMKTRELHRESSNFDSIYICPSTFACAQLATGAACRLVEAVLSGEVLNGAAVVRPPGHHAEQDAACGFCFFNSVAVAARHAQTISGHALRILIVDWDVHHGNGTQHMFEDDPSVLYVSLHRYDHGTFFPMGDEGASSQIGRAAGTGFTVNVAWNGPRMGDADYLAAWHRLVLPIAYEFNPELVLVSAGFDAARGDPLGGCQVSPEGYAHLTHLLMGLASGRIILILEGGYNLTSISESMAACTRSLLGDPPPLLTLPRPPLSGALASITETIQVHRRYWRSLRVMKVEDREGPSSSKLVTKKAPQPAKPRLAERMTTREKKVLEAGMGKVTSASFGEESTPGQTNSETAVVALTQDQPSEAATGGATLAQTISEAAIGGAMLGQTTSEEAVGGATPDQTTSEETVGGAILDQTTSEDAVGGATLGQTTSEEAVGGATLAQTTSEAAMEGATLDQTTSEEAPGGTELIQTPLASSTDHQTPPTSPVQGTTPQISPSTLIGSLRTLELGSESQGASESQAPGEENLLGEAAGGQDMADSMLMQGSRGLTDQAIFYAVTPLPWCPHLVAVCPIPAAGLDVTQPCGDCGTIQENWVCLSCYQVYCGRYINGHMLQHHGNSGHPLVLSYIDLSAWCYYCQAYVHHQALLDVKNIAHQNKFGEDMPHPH

[2] = Permeability of the compound in PBS/EtOH buffer (70:30) incubated for 18 hrs by UV plate reader based PAMPA assay; format: ADME; conditions: read-out: permeability

Which IC50 [1] does the source give for `COc1cc2c(NCC3CCN(c4ncc(C(=O)NO)cn4)CC3)cc(-c3ccc(C)o3)nc2cc1OCCCN1CCCC1` here?
The IC50 was 152 nM.

Which Papp at 18 h [2] does the source give for `COc1cc2nc(-c3ccc(C)o3)cc(NCC3CCN(c4ncc(C(=O)NO)cn4)CC3)c2cc1OC` here?
Its Papp at 18 h is 0.504 ×10⁻⁶ cm/s.
